Assays:
[1] = test system: differentiated C2C12 skeletal muscle cells; assay: 3H-deoxyglucose uptake in C2C12 myotubes; assay type: cell-based, murine; settings: 18 h
Procedure: 2.3 ^3H-deoxyglucose uptake in C2C12 myotubes: Cell culture and the ^3H-deoxyglucose uptake assay were performed as previously described [34B, 35B, 37B]. Briefly, C2C12 murine skeletal myoblasts (American Type Culture Collection; Manassas, Va.) were cultured under standard conditions in 12-well plates. Cells were proliferated to 80% confluence in high-glucose Dulbecco's modified Eagle's medium (DMEM; Wisent; St-Bruno, QC) supplemented with 10% fetal bovine serum (FBS; Wisent), 10% horse serum (HS), and antibiotics. Differentiation into multinucleated myotubes was then promoted with DMEM supplemented with 2% HS and antibiotics. All uptake assays were performed on 7-day differentiated cells, and treatments were timed accordingly. […] DMSO concentration was fixed at 0.1% for all conditions. Cells were routinely inspected for abnormal morphology by phase-contrast microscopy at the conclusion of the treatment period. […] Cells were then washed twice in glucose-free KPB at 37° C. before incubation for exactly 10 min at 37° C. in glucose-free KPB containing 0.5 μCi/ml 2-deoxy-D-[1-^3H]glucose (Amersham Biosciences; Buckinghamshire, UK). Cells were then placed on ice and immediately washed three times with ice-cold KPB. Cells were inspected for monolayer detachment and lysed in 0.1 N NaOH with scraping. […] Three independent experiments of 18 h treatment duration were performed for each of the selected test compounds, with three replicates per condition per experiment. Vehicle-control and 50 μM 2,4-dinitrophenol conditions were included on every plate. Some compounds were also tested at 50 μM under the following conditions: a 15 h treatment with vehicle only followed by a 3 h treatment with the test compound; a 15 h treatment with the test compound followed by a 3 h repeat treatment.
Protocol for ^3H-deoxyglucose uptake assay in C2C12 or other skeletal muscle cells; C2C12 murine skeletal myoblasts (American Type Culture Collection; Manassas, Va.) may be cultured under standard conditions in 12-well plates. Cells may be proliferated to 80% confluence in high-glucose Dulbecco's modified Eagle's medium (DMEM) supplemented with 10% fetal bovine serum (FBS), 10% horse serum (HS), and antibiotics. Differentiation into multinucleated myotubes may be then promoted with DMEM supplemented with 2% HS and antibiotics. All uptake assays may be performed on 7-day differentiated cells, and treatment onset may be timed accordingly. Cells may be treated with reference substances (such as metformin (100 or 400 μM), phenformin (100 μM), or 2,4-dinitrophenol 10-100 μM), compounds described herein, or vehicle (DMSO) in complete differentiation medium. DMSO concentration may be fixed at 0.1% for all conditions. Cells may be routinely inspected for abnormal morphology by phase-contrast microscopy at the conclusion of the treatment period. […] Cells may be then washed twice in glucose-free KPB at 37° C. before incubation for exactly 10 min at 37° C. in glucose-free KPB containing 0.5 μCi/ml 2-deoxy-D-[1-3H]glucose (Amersham Biosciences; Buckinghamshire, UK). Cells may be then placed on ice and immediately washed three times with ice-cold KPB. Cells may be inspected for monolayer detachment and lysed in 0.1 N NaOH with scraping. […] Three or more independent experiments of 18 hours treatment duration may be performed for each test compound, with three or more replicates per condition per experiment. Vehicle-control and 2,4-dinitrophenol conditions may be included on every plate for the purpose of standardizing.

[2] = test system: isolated rat liver mitochondria; assay: Residual functional capacity / inhibitory effect on ADP-stimulated (state 3) oxygen consumption; assay type: biochemical; settings: for Residual capacity (%): functional capacity (state 3 minus state 4 rate) as % of vehicle-treated mitochondria
[3] = test system: H4IIE hepatocytes; assay: Lactate dehydrogenase (LDH) release, cellular viability; assay type: cell-based, murine; settings: 25 μM, 16 h
Procedure: 2.4 Glucose-6-phosphatase activity in H4IIE hepatocytes: H4IIE murine hepatocytes (American Type Culture Collection) were cultured to confluence in 12-well plates in DMEM supplemented with 10% FBS and antibiotics. […] Effects of test compounds on cellular viability were assessed by measuring the release of lactate dehydrogenase (LDH) into the culture medium at the end of a 16 h treatment using a commercial kit (Cytotoxicity Detection Kit; Roche Diagnostics; Laval, QC) as per the manufacturer's instructions; LDH release was expressed as % of total (medium+lysate) LDH content for each well. […] Glucose-6-phosphatase (G6Pase) activity was assessed by measuring the rate of glucose formation in the presence of a non-limiting amount of glucose-6-phosphate (G6P), as done by others [39B, 40B]. Glucose production was measured with a commercial glucose assay kit (AutoKit Glucose; Wako Diagnostics; Richmond, Va.). […] Absorbance of the supernatant was measured at 505 nm at ambient temperature and glucose concentration was calculated from a standard curve performed in parallel. Control wells without exogenous G6P were included on each plate for each treatment condition and activity measured from these wells was subtracted from activity measured in the presence of exogenous G6P. G6Pase activity calculated in this way was then expressed normalized to protein content on a well-by-well basis. […]

O=[N+]([O-])c1ccc(O)c([N+](=O)[O-])c1 [2,4-dinitrophenol]
increase in basal glucose uptake ([1]; 25 μM): 66% | increase in basal glucose uptake ([1]; 50 μM): 119% | increase in basal glucose uptake ([1]; 100 μM): 169% | Inhibitory effect (%) ([2]; test conc. 25 μM): 0% | Residual capacity (%) ([2]; test conc. 25 μM): 14 ± 6% | Inhibitory effect (%) ([2]; test conc. 100 μM): 0% | Residual capacity (%) ([2]; test conc. 100 μM): 0 ± 0% | release of lactate dehydrogenase [3]: comparable to that of vehicle-treated cells
